The values below are quoted from earlier work in patent publication US11577235B1, “Layered catalyst reactor systems and processes for hydrotreatment of hydrocarbon feedstocks” (Chevron U.S.A. Inc., priority 2021, dated 2023).

In the data set the test system is rats. The note with it: single oral dose to rats.

In the case of `O=CC(=O)O` [glyoxylic], the LD50 is given as 3000 mg/kg. Consider thio-diglycolic acid, for which the median lethal dose (LD50) is 500 mg/kg.
